Patent US11815435B2, “Beta glucan immunopharmacodynamics” (HiberCell, Inc., priority 2017, dated 2023)
Entries after “also recorded” stand apart in the source; their conditions may differ.

What was measured:
Assay type in all cases: in vivo, human
[1] = tested on: complement activation products, C5a and SC5b-9; assay: Complement activation in plasma by ELISA after IV PGG; settings: healthy subjects, single dose PGG IV
Method: (§1) IPD changes induced by yeast soluble β-glucan were evaluated in a Phase I healthy donor trial, which included three cohorts of 12 healthy human volunteers aged 18-65 years. In Cohort 1, subjects were administered a single dose of 4 mg/kg yeast soluble β-glucan by IV infusion over 2-3 hours. In Cohort 2, subjects were administered 4 mg/kg PGG by IV infusion over 2-3 hours once weekly for 3 weeks. Half of the subjects received premedications which included low dose corticosteroids (4 mg of dexamethasone, PO) and low-dose H1 antagonists (50 mg diphenhydramine.
Subjects were stratified/classified into subgroups based on pre-infusion ABA levels. ABA cutoff levels were selected based on prior studies and are only exemplary. Classification may include only 2 subgroups based on an IgG ABA cutoff level of 15 μg/ml, 20 μg/ml, 25, μg/ml, 30 μg/ml, 35 μg/ml, 40 μg/ml, 45 μg/ml or 50 μg/ml. […] Serum and cellular IPD markers were analyzed pre-infusion, 15 minutes, 30 minutes and 1 hour post-infusion, end of infusion (EOI) and 1 hour, 2 hours, 3 hours, 4 hours, 24 hours, 48 hours and 168 hours after EOI.
Levels of complement activity, measured by […] (Quidel) in plasma, were determined by measuring complement activation products, C5a and SC5b-9. Levels were measured week 1 pre-infusion, 15 minutes, 30 minutes and 1 hour post-infusion, EOL 1 hour EOI and week 2 pre-infusion. […]

[2] = tested on: innate immune activation marker genes; assay: Gene expression in whole blood (Quantigeneplex); settings: 3 hr post-infusion vs. pre-dose, no premedications
Text: Whole blood was collected in PaxGene blood collection tubes (BD Biosciences) at various time points pre- and post-PGG administration. RNA was isolated and assayed by Quantigeneplex (Affymetrix) and the relative fold changes were log 2 transformed. Data presented are from subjects treated with PGG without premedications.

[3] = tested on: IPD responses (SC5b-9, monocyte and neutrophil mobilization, MCP-1, CIC, IL-8); assay: Immunopharmacodynamic (IPD) responses taken together: dose and dosing interval comparison; settings: for IPD response: mid ABA (20-50 μg/ml) subjects
Method: (§2) In Cohort 3, subjects received either 2 mg/kg PGG or 4 mg/kg PGG by IV infusion over 1-2 hours. The subjects were administered either dose of PGG once weekly for 2 weeks, then given a 2 week wash out (no PGG) and finally received one more dose of PGG (week 5). Adverse events and complete blood counts were evaluated. In addition, whole blood and serum was evaluated for the following at various time points post-infusion: PGG binding to immune cells (monocytes, neutrophils, B-cells, DC subsets), complement activation (C5a and Sc5b9), serum cytokine/chemokine levels, IgG ABA levels, flow cytometry of immune cells, circulating immune complex formation and Quantigene analysis of transcriptional profile. Table 1 lists each subject's pre-dose IgG ABA levels, PGG dose and whether they received premedications.
Thus, changes in IPD responses induced by PGG administration are dependent on ABA levels.
IPD responses were compared between subjects within subgroups administered doses of either 2 mg/kg and 4 mg/kg PGG. […] Therefore, an effective dose of PGG for Mid-ABA subjects is higher than an effective dose of PGG for High-ABA subjects. This is beneficial to High-ABA subjects because with a lower PGG dose, they will experience fewer adverse events.
Increasing the time between soluble β-glucan doses may not only promote repeated acute IPD responses but also enhance acute IPD responses, which may increase the effectiveness of soluble β-glucan therapy. Subjects in Cohort 3, as described above, were administered a dose of PGG once weekly for 2 weeks, then given a 2 week wash out (no PGG) and finally received one more dose of PGG (week 5).
Levels of CIC (FIG. 19), SC5b-9 (FIG. 20), neutrophil mobilization (FIG. 21), IL-8 (FIG. 22) and MCP-1 (FIG. 22) were also measured over the course of treatment. […] In some cases, acute IPD responses were only seen with the final dose—after the 2 week dosing interval. In other cases, the acute IPD responses were enhanced with the final dose. Thus, for some immunotherapies or even some individuals, increasing the amount of time between dosing with soluble β-glucan may lead to enhanced efficacy.

[4] = Adverse events after a single dose of IV PGG without premedication
Method: as §1, §2
Adverse events were evaluated for subjects after a single dose of IV PGG. Table 2 lists ABA levels and adverse events for subjects that had not received premedication prior to PGG infusion.

[5] = tested on: SC5b-9; assay: Example 1: complement activation (SC5b-9) in the cancer subject; settings: cancer subject after conversion to High-ABA subgroup; IMPRIME PGG 4 mg/kg once every 3 weeks

β(1,6)-[poly-(1,3)-D-glucopyranosyl]-poly-β(1,3)-D-glucopyranose [PGG]
increase in complement activation (SC5b-9 levels) [1]: correlated with ABA levels with levels peaking at EOI
expression of innate immune activation marker genes [2]: consistently increased in subjects with higher levels of ABA
acute IPD responses (CIC, SC5b-9, neutrophil mobilization, IL-8, MCP-1) ([3]; Cohort 3, dosing after a 2 week dosing interval): generated or enhanced
changes in IPD responses ([3]; low-ABA subjects, PGG administration): very little to no changes in responses
IPD response ([3]; 2 mg/kg PGG): minimal response
IPD response ([3]; 4 mg/kg PGG): responded much better (on par with High-ABA subjects)
IPD responses, 2 mg/kg vs 4 mg/kg dose ([3]; subjects with ABA>50 μg/ml): similar
adverse events vs ABA level ([4]; no premedication): more adverse events occurred as ABA levels increased
infusion reaction-related adverse events (CARPA) ([4]; no premedication): observed in some, but not all, subjects with ABA levels>20 ug/ml
Adverse Events (CTCAE grade) ([4]; subject 002, pre-dose ABA 34.4, no premedication): None
Adverse Events (CTCAE grade) ([4]; subject 004, pre-dose ABA 39.7, no premedication): None
Adverse Events (CTCAE grade) ([4]; subject 006, pre-dose ABA 127, no premedication): Gr 1 chills; also recorded: Gr 2 nausea/emesis; also recorded: Gr 2 chest pressure
Adverse Events (CTCAE grade) ([4]; subject 010, pre-dose ABA 177.9, no premedication): Gr 1 back pain; also recorded: Gr 2 chest pressure; also recorded: Gr 2 nausea
Adverse Events (CTCAE grade) ([4]; subject 016, pre-dose ABA 27.6, no premedication): Gr 1 headache
Adverse Events (CTCAE grade) ([4]; subject 022, pre-dose ABA 87.8, no premedication): Gr 1 chest pressure; also recorded: Gr 1 light headedness; also recorded: Gr 1 abdominal cramping; also recorded: Gr 2 myalgia
Adverse Events (CTCAE grade) ([4]; subject 025, pre-dose ABA 9.9, no premedication): None
Adverse Events (CTCAE grade) ([4]; subject 034, pre-dose ABA 68.0, no premedication): Gr 1 chest pressure; also recorded: Gr 1 warm sensation; also recorded: Gr 1 light headedness; also recorded: Gr 1 nausea; also recorded: Gr 1 hand paresthesia; also recorded: Gr 2 chills; also recorded: Gr 3 headache
Adverse Events (CTCAE grade) ([4]; subject 037, pre-dose ABA 10.4, no premedication): None
Adverse Events (CTCAE grade) ([4]; subject 039, pre-dose ABA 13.6, no premedication): Gr 1 headache; also recorded: Gr 1 drowsiness
Adverse Events (CTCAE grade) ([4]; subject 043, pre-dose ABA 32.6, no premedication): Gr 2 headache
Adverse Events (CTCAE grade) ([4]; subject 047, pre-dose ABA 33.6, no premedication): None
Adverse Events (CTCAE grade) ([4]; subject 055, pre-dose ABA 56.2, no premedication): Gr 1 nausea; also recorded: Gr 1 flushing; also recorded: Gr 2 chest pressure; also recorded: Gr 2 dyspnea; also recorded: Gr 2 low back pain; also recorded: Gr 2 headache (delayed); also recorded: Gr 2 back pain (delayed); also recorded: Gr 2 neck/shoulder
Adverse Events (CTCAE grade) ([4]; subject 057, pre-dose ABA 37.3, no premedication): Gr 1 diarrhea
Adverse Events (CTCAE grade) ([4]; subject 058, pre-dose ABA 34.0, elevated pre-dose CIC, no premedication): Gr 1 dysuria (delayed); also recorded: Gr 2 myalgia (delayed); also recorded: Gr 2 arthralgia
Adverse Events (CTCAE grade) ([4]; subject 067, pre-dose ABA 15.0, no premedication): Gr 1 LE stiffness
Adverse Events (CTCAE grade) ([4]; subject 068, pre-dose ABA 26.1, no premedication): None
Adverse Events (CTCAE grade) ([4]; subject 070, pre-dose ABA 58.7, no premedication): Gr 1 headache
complement activation (SC5b-9 levels) [5]: Acute increases in complement activation
